Patent US20230000813A1, “COMPOUND FOR THE TREATMENT OF BOVINE OR SWINE RESPIRATORY DISEASE” (Intervet Inc., priority 2016, published 2023)
Converted amounts (≈) assume the structure as drawn.

What follows are compounds tested on Pasteurella multocida PM 12080 (IV102277-0093, BRD field isolate) (assay: MIC, broth-microdilution (CLSI VET01-A4)). Conditions: Pasteurella multocida PM 12080.
Type: cell-based
Procedure: (§1) The Minimum inhibitory concentrations (MIC) of compounds according to the invention for a number of veterinary bacterial pathogens were determined by the broth-microdilution method according to CLSI document VET01-A4.
(§2) Microdilution trays containing a doubling dilution series of the test compound were used for the tests. The MIC results were interpreted according to the CLSI documents VET01-S3. The lowest concentration of compound at which no visible growth (i.e. no turbidity) detected by the unaided eye was recorded as the MIC.
(§3) The Minimum inhibitory concentrations (MIC) of compounds according to the invention were determined by the broth-microdilution method according to CLSI document VET01-A4.
(§4) Microdilution trays containing a doubling dilution series of the test compound were used for the tests.
(§5) The MIC results were interpreted according to the CLSI documents VET01-S3. The lowest concentration of compound at which no visible growth (i.e. no turbidity) detected by the unaided eye was recorded as the MIC.

SMILES | MIC PM 12080
C[C@@H](O)[C@H](NC(=O)c1ccc(C#Cc2ccc(CNCc3ccc(F)cc3)cc2)cc1)C(=O)NO [Compound 475] | <=0.1 μM
C#CCNCc1ccc(C#Cc2ccc(C(=O)N[C@H](C(=O)NO)[C@@H](C)O)cc2)cc1 [C. 469] | <=0.1 μM
CC(O)C(NC(=O)c1ccc(C#CC#CC=CCNCc2cccnc2)cc1)C(=O)NO (stereo not drawn) [Compound 460] | <=0.1 μM
C#CCNCc1ccc(C#Cc2ccc(C(=O)N[C@H](C(=O)NO)[C@@H](C)O)cc2)cn1 [Compound 490] | <=0.1 μM
CC(O)C(NC(=O)c1ccc(C#CC#CC=CCN(C)Cc2ccccc2)cc1)C(=O)NO (stereo not drawn) [Compound 452] | <=0.1 μM

The compounds below were run on Pasteurella multocida PM 6391 (ATCC 43137, reference strain) (assay: MIC, broth-microdilution (CLSI VET01-A4)). Conditions: Pasteurella multocida PM 6391.
Type: cell-based
Procedure: as §1, §2, §3, §4, §5

SMILES | MIC PM 6391
C[C@@H](O)[C@H](NC(=O)c1ccc(C#Cc2ccc(CNCc3ccc(F)cc3)cc2)cc1)C(=O)NO [Compound 475] | <=0.1 μM
C#CCNCc1ccc(C#Cc2ccc(C(=O)N[C@H](C(=O)NO)[C@@H](C)O)cc2)cc1 [C. 469] | <=0.1 μM
CC(O)C(NC(=O)c1ccc(C#CC#CC=CCNCc2cccnc2)cc1)C(=O)NO (stereo not drawn) [Compound 460] | <=0.1 μM
C#CCNCc1ccc(C#Cc2ccc(C(=O)N[C@H](C(=O)NO)[C@@H](C)O)cc2)cn1 [Compound 490] | <=0.1 μM
CC(O)C(NC(=O)c1ccc(C#CC#CC=CCN(C)Cc2ccccc2)cc1)C(=O)NO (stereo not drawn) [Compound 452] | <=0.1 μM

What follows are compounds tested on Mannheimia haemolytica MH 6374 (ATCC 33396, reference strain) (assay: MIC, broth-microdilution (CLSI VET01-A4)). Conditions: Mannheimia haemolytica MH 6374.
Type: cell-based
Procedure: as §1, §2, §3, §4, §5

SMILES | MIC MH 6374
C#CCNCc1ccc(C#Cc2ccc(C(=O)N[C@H](C(=O)NO)[C@@H](C)O)cc2)cc1 [C. 469] | <=0.1 μM

Same assay, conditions: Mannheimia haemolytica MH 6374; read-out: MIC MH 6374

SMILES | MIC [µM]
C[C@@H](O)[C@H](NC(=O)c1ccc(C#Cc2ccc(CNCc3ccc(F)cc3)cc2)cc1)C(=O)NO [Compound 475] | 0.4 (≈ 0.19 µg/mL)
CC(O)C(NC(=O)c1ccc(C#CC#CC=CCNCc2cccnc2)cc1)C(=O)NO (stereo not drawn) [Compound 460] | 0.8 (≈ 0.346 µg/mL)
C#CCNCc1ccc(C#Cc2ccc(C(=O)N[C@H](C(=O)NO)[C@@H](C)O)cc2)cn1 [Compound 490] | 0.8 (≈ 0.325 µg/mL)
CC(O)C(NC(=O)c1ccc(C#CC#CC=CCN(C)Cc2ccccc2)cc1)C(=O)NO (stereo not drawn) [Compound 452] | 0.4 (≈ 0.178 µg/mL)

What follows are compounds tested on Mannheimia haemolytica MH 6357 (M7/2, reference strain, cattle infection strain) (assay: MIC, broth-microdilution (CLSI VET01-A4)). Conditions: Mannheimia haemolytica MH 6357; read-out: MIC MH 6357.
Type: cell-based
Procedure: as §1, §2, §3, §4, §5

SMILES | MIC [µM]
C[C@@H](O)[C@H](NC(=O)c1ccc(C#Cc2ccc(CNCc3ccc(F)cc3)cc2)cc1)C(=O)NO [Compound 475] | 0.2 (≈ 0.0951 µg/mL)
C#CCNCc1ccc(C#Cc2ccc(C(=O)N[C@H](C(=O)NO)[C@@H](C)O)cc2)cc1 [C. 469] | 0.2 (≈ 0.0811 µg/mL)
CC(O)C(NC(=O)c1ccc(C#CC#CC=CCNCc2cccnc2)cc1)C(=O)NO (stereo not drawn) [Compound 460] | 0.8 (≈ 0.346 µg/mL)
C#CCNCc1ccc(C#Cc2ccc(C(=O)N[C@H](C(=O)NO)[C@@H](C)O)cc2)cn1 [Compound 490] | 0.4 (≈ 0.163 µg/mL)
CC(O)C(NC(=O)c1ccc(C#CC#CC=CCN(C)Cc2ccccc2)cc1)C(=O)NO (stereo not drawn) [Compound 452] | 0.2 (≈ 0.0891 µg/mL)

These compounds were tested on Pasteurella multocida PM 6267 (P 2225 (L386), reference strain, mouse infection strain) (assay: MIC, broth-microdilution (CLSI VET01-A4)). Conditions: Pasteurella multocida PM 6267.
Type: cell-based
Procedure: as §1, §2, §3, §4, §5

SMILES | MIC PM 6267
C[C@@H](O)[C@H](NC(=O)c1ccc(C#Cc2ccc(CNCc3ccc(F)cc3)cc2)cc1)C(=O)NO [Compound 475] | <=0.1 μM
C#CCNCc1ccc(C#Cc2ccc(C(=O)N[C@H](C(=O)NO)[C@@H](C)O)cc2)cc1 [C. 469] | <=0.1 μM
CC(O)C(NC(=O)c1ccc(C#CC#CC=CCNCc2cccnc2)cc1)C(=O)NO (stereo not drawn) [Compound 460] | <=0.1 μM
CC(O)C(NC(=O)c1ccc(C#CC#CC=CCN(C)Cc2ccccc2)cc1)C(=O)NO (stereo not drawn) [Compound 452] | <=0.1 μM

The compounds below were run on Mannheimia haemolytica MH 10720 (154, BRD field isolate) (assay: MIC, broth-microdilution (CLSI VET01-A4)). Conditions: Mannheimia haemolytica MH 10720.
Type: cell-based
Procedure: as §1, §2, §3, §4, §5

SMILES | MIC MH 10720
C#CCNCc1ccc(C#Cc2ccc(C(=O)N[C@H](C(=O)NO)[C@@H](C)O)cc2)cc1 [C. 469] | <=0.1 μM
C#CCNCc1ccc(C#Cc2ccc(C(=O)N[C@H](C(=O)NO)[C@@H](C)O)cc2)cn1 [Compound 490] | <=0.1 μM

The compounds below were run on Mannheimia haemolytica MH 12587 (1071, BRD field isolate, macrolide-resistance: erm+, E+) (assay: MIC, broth-microdilution (CLSI VET01-A4)). Conditions: Mannheimia haemolytica MH 12587, macrolide-resistant.
Type: cell-based
Procedure: as §1, §2, §3, §4, §5

SMILES | MIC MH 12587 [µM]
C[C@@H](O)[C@H](NC(=O)c1ccc(C#Cc2ccc(CNCc3ccc(F)cc3)cc2)cc1)C(=O)NO [Compound 475] | 0.8 (≈ 0.38 µg/mL)
C#CCNCc1ccc(C#Cc2ccc(C(=O)N[C@H](C(=O)NO)[C@@H](C)O)cc2)cc1 [C. 469] | 0.4 (≈ 0.162 µg/mL)
CC(O)C(NC(=O)c1ccc(C#CC#CC=CCNCc2cccnc2)cc1)C(=O)NO (stereo not drawn) [Compound 460] | 1.6 (≈ 0.692 µg/mL)
C#CCNCc1ccc(C#Cc2ccc(C(=O)N[C@H](C(=O)NO)[C@@H](C)O)cc2)cn1 [Compound 490] | 1.6 (≈ 0.65 µg/mL)
CC(O)C(NC(=O)c1ccc(C#CC#CC=CCN(C)Cc2ccccc2)cc1)C(=O)NO (stereo not drawn) [Compound 452] | 0.8 (≈ 0.356 µg/mL)

These compounds were tested on Mannheimia haemolytica MH 13093 (XB0472-6014.1, BRD field isolate) (assay: MIC, broth-microdilution (CLSI VET01-A4)). Conditions: not given.
Type: cell-based
Procedure: as §1, §2

SMILES | MIC [µM]
C[C@@H](O)[C@H](NC(=O)c1ccc(C#Cc2ccc(CNCc3ccc(F)cc3)cc2)cc1)C(=O)NO [Compound 475] | 0.8 (≈ 0.38 µg/mL)
C#CCNCc1ccc(C#Cc2ccc(C(=O)N[C@H](C(=O)NO)[C@@H](C)O)cc2)cc1 [C. 469] | 0.4 (≈ 0.162 µg/mL)
CC(O)C(NC(=O)c1ccc(C#CC#CC=CCNCc2cccnc2)cc1)C(=O)NO (stereo not drawn) [Compound 460] | 1.6 (≈ 0.692 µg/mL)
C#CCNCc1ccc(C#Cc2ccc(C(=O)N[C@H](C(=O)NO)[C@@H](C)O)cc2)cn1 [Compound 490] | 1.6 (≈ 0.65 µg/mL)
CC(O)C(NC(=O)c1ccc(C#CC#CC=CCN(C)Cc2ccccc2)cc1)C(=O)NO (stereo not drawn) [Compound 452] | 0.8 (≈ 0.356 µg/mL)
